Assay results published in US20160158245A1, “PHARMACEUTICAL FORMULATION CONTAINING THIENOTRIAZOLODIAZEPINE COMPOUNDS” (ONCOETHIX GmbH, priority 2013, published 2016).

How the values were obtained:
Format in all cases: cell-based
[1] = tested on: BRD4, BRD3 and c-MYC in RS4-11; experiment: Immunoblot (protein level) in RS4-11; settings: RS4-11, 500 nM
Description: (§1) FIGS. 43A-43L illustrate effects of OTX015 at the protein level for BRD 4, BRD2 and BRD 3 as well as c-MYC. […] AML cell lines HL60, K562 (FIGS. 43A-43C; FIG. 43D-43F) and ALL cell lines Jurkat and RS4-11 (FIG. 43G-43I; FIG. 4JD-43L) were treated with OTX015 at 500 nM and compared to controls exposed to according DMSO. At indicated time-points proteins were extracted and immunoblotted with BRD4, BRD3, BRD2 or c-MYC antibodies after gel electrophoresis. […] One representative experiment out of three is shown.
(§2) The membranes were blocked with LiCor blocking buffer (LiCor, Lincoln, Nebr., USA) and incubated with the respective primary antibody: anti-BRD4 (Epitomics 5716-1, Burlingame, USA), anti-BRD3 (ab56342, AbCam, UK), anti-BRD2 (ab37633, AbCam, UK), anti c-MYC (sc-764 (N262), Santa Cruz, USA) and anti-GAPDH (Invitrogen 398600, Grand Island, USA). Blots were stained with either goat anti-rabbit InfraRedDye 680RD or goat anti-mouse InfraRedDye 800CWsecondary antibody (LiCor). Membranes were imaged using a LiCor Odyssey scanner. Boxes were manually placed around each band of interest, which returned near-infrared fluorescent values of raw intensity with intra-lane background subtracted using Odyssey 3.0 analytical software (LiCor).

KG1a = experiment: Apoptosis assessment (annexin V/PI flow cytometry); settings: 96 hours at 10 nM
Description: (§3) a total of 1×10^6 cellsderived from patients or cell lines were resuspended in 1 mL culture medium and incubated with the indicated dosages of OTX015 prepared freshly from 1 mM stock solution in DMSO. Control cells were incubated with the corresponding amount of dimethyl sulfoxide (DMSO 0.2-1%) to exclude toxicity of the excipient. Apoptotic cells were detected by cytofluorometric analysis using a FACScan (Becton Dickinson, Mountain View, USA). Cells were stained with propidium iodide (PI; 5 μg/mL; Becton Dickinson) and concomitantly for 15 minutes at RT with annexin-V-FITC (Becton Dickinson) according to the manufacturer's instructions to determine outer membrane phosphatidyl serine exposure. Data were analyzed with the Flowjo (Tree Star Inc., Ashland, USA) flow cytometry software.

K562 = experiment: Apoptosis assessment (annexin V/PI flow cytometry)
Description: as §3

HL60 = experiment: Apoptosis assessment (annexin V/PI flow cytometry)
Description: as §3

TOM-1 = experiment: Apoptosis assessment (annexin V/PI flow cytometry); settings: TOM-1, 96 hours at 10 nM
Description: as §3

Jurkat = experiment: Apoptosis assessment (annexin V/PI flow cytometry)
Description: as §3

RS4-11 = experiment: Apoptosis assessment (annexin V/PI flow cytometry); settings: RS4-11, 96 hours at 10 nM
Description: as §3

[2] = tested on: ALL cell lines (Jurkat, RS 4-11, TOM-1) and AML cell lines (HL60, K562, KG1 and KG1a); experiment: Apoptosis assessment, statements over the ALL and AML cell lines
Description: as §3
Compound (1-1) induced apoptosis in three ALL cell lines (Jurkat, RS 4-11, TOM-1) and four AML cell lines (HL60, K562, KG1 and KG1a) that were treated with different doses of the drug as detected by outer membrane phosphatidylserine exposure and propidium iodide incorporation at different time points (FIGS. 13A-13C and FIGS. 14A-14D). […] In all other cell lines, 50% of cells became apoptotic within 12 to 24 hours after treatment with 100 nM of Compound (1-1).

[3] = tested on: c-MYC in BM cells of patient 5; experiment: Immunoblot of c-MYC in patient bone marrow cells treated ex vivo; settings: BM cells of patient 5, 250 and 500 nM, 72 h
Description: FIGS. 45A-45E illustrate modulation of c-MYC at the protein level in a patient sample. Protein extracts were obtained from bone marrow (BM) cells of patient 5 (FIG. 44D; FIGS. 45A-45D) upon ex vivo treatment with 250 and 500 nM of OTX015 respectively. […] Bone marrow cells from patient 5 were treated with OTX015 at 250 nM and 500 nM and compared to controls exposed to according concentrations with DMSO. Proteins were extracted at 72 h and immunoblotted with appropriate c-MYC antibodies after gel electrophoresis. […] Expression level of cMYC relative to ABL were realised by RQ-PCR at three time points 24, 48 and 72 h (FIG. 45B). Results in FIG. 45B are shown with means±SD from duplicates.
as §2, with “Boxes were manually placed around each band of interest, which returned near-infrared fluorescent values of raw intensity with intra-lane background subtracted using Odyssey 3.0 analytical software (LiCor).” left out

[4] = tested on: BRD4, BRD3 and c-MYC in K562; experiment: Immunoblot (protein level) in K562; settings: K562, 500 nM, starting after 24 h
Description: as §1, §2

BRD4, BRD2 and BRD3 = experiment: RQ-PCR of BRD4, BRD2 and BRD3 in leukemia cell lines; settings: 250 nM and 500 nM, 48 h
Description: The total RNA obtained after extraction with TRIZOL (Invitrogen, Grand Island, USA) were titrated to 1 μg/uL and stored at −80° C. The complementary DNA (cDNA) was synthesized from 1 μg RNA. The RQ-PCR reactions (BRD2, BRD3, BRD4, c-MYC and ABL) were performed in a volume of 25 ul from a tenth of the cDNA (equivalent to 100 ng of RNA) on a thermocycler ABI7900HT in standard mode (1 cycle of 2 minutes at 50° C.-10 minutes at 95° C. followed by 50 cycles of 15 seconds at 95° C.-1 minute at 60° C.).

c-MYC in Jurkat = experiment: Immunoblot (protein level) in Jurkat; settings: 500 nM, 48 h and 72 h
Description: as §1, §2

[5] = tested on: CD34+ and CD34− AML cells; experiment: Apoptosis in primary cells; settings: CD34+ and CD34− cells of one AML patient, 24 hours
Description: as §3
(§4) The efficacy of Compound (1-1) to induce apoptosis in primary cells was investigated. CD34+ and CD34− cells were obtained by positive selection with CD34+ microbeads from cord blood (healthy controls) and one AML patient.

CD34+ cord blood cells = experiment: Apoptosis in primary cells; settings: CD34+ cord blood cells of healthy controls, 500 nM, 24 hours
Description: as §3, §4

CD34− cord blood cells = experiment: Apoptosis in primary cells; settings: CD34− cord blood cells of healthy controls, 24 hours
Description: as §3, §4

[6] = tested on: BRD4, BRD3 and c-MYC in HL60; experiment: Immunoblot (protein level) in HL60; settings: HL60, 500 nM
Description: as §1, §2

In the case of `Cc1sc2c(c1C)C(c1ccc(Cl)cc1)=N[C@@H](CC(=O)Nc1ccc(O)cc1)c1nnc(C)n1-2` [Compound (1-1), 2-[(6S)-4-(4-chlorophenyl)-2,3,9-trimethyl-6H-thienol[3,2-f]-[1,2,4]triazolo[4,3-a][1,4]diazepin-6-yl]-N-(4-hydroxyphenyl)acetamide dihydrate], the “BRD4, BRD3 and c-MYC protein level” value [1] is reported as “remained unaffected”, the apoptosis (KG1a) is reported as 45% and the “delayed apoptosis after drug washout” value (K562; K562, 6 hours exposure, read at 96 hours) is reported as “but not in the less sensitive K562”. For the same molecule, the apoptosis (K562; K562, 96 hours at 10 nM) was 20%, the apoptotic cells (K562; K562, at 24 hours) was 20% and the “delayed apoptosis after drug washout” value (HL60; HL60, 6 hours exposure, read at 96 hours) was “significant delayed apoptosis”. The apoptosis (HL60; HL60, 96 hours at 10 nM) was over 90%, the apoptosis (TOM-1) was 70% and the “delayed apoptosis after drug washout” value (Jurkat; 6 hours exposure, read at 96 hours) was “significant delayed apoptosis”. The apoptosis (Jurkat; 96 hours at 10 nM) was over 90%, the apoptosis (RS4-11) was 30% and the “percentage of apoptotic cells” value ([2]; 100 nM, within 12 to 24 hours, all cell lines other than K562 and KG1a) was 50%. For the same molecule, the “induction of apoptosis, dose dependence” value ([2]; 72 h, KG1a, NOMO1, RS4-11, BV-173, Jurkat, TOM-1) was “dose-dependent manner”, the induction of apoptosis ([2]; different doses and time points) was “induced apoptosis in all cell lines tested but to a lesser extent in K562 and KG1a cells” and the c-MYC protein level [3] was “downregulation of c-MYC”. The “BRD4, BRD3 and c-MYC protein level” value [4] was “downregulation of BRD4, BRD3 and c-MYC”, the “down regulation of BRD4, BRD2 or BRD3 at the cDNA level” value (BRD4, BRD2 and BRD3) was “not able to detect a consistent down regulation” and the “upregulation of BRD3 and BRD2 at the cDNA level” value (BRD4, BRD2 and BRD3) was “significant upregulation of BRD3 and BRD2 in KG1, K562 and Jurkat and increase of BRD2 in KG1 and HL60”. The c-MYC protein level (c-MYC in Jurkat) was “c-MYC downregulation”, the “in vitro induction of apoptosis” value [5] was “induction of apoptosis in a dose dependent manner” and the “toxicity (apoptosis) for immature cord blood cells” value (CD34+ cord blood cells) was “toxicity for immature CD34+ cells at the 500 nM dose level”. For the same molecule, the “toxicity (apoptosis) for mature cord blood compartment” value (CD34− cord blood cells) was “remained unaffected”, the c-MYC protein level ([6]; 24 h) was “transient downregulation” and the “BRD4 and BRD3 protein level” value ([6]; 72 h) was “remained unaffected”.
